The target of the experiment is T1, HEK-Blue-hTLR7 cells (Homo sapiens, UniProt Q9NYK1).
T1 construct: expressed in transfected cells; host or cells: HEK-Blue-hTLR7 cells (HEK293-derived reporter line)
T1 sequence (Q9NYK1 27-1049): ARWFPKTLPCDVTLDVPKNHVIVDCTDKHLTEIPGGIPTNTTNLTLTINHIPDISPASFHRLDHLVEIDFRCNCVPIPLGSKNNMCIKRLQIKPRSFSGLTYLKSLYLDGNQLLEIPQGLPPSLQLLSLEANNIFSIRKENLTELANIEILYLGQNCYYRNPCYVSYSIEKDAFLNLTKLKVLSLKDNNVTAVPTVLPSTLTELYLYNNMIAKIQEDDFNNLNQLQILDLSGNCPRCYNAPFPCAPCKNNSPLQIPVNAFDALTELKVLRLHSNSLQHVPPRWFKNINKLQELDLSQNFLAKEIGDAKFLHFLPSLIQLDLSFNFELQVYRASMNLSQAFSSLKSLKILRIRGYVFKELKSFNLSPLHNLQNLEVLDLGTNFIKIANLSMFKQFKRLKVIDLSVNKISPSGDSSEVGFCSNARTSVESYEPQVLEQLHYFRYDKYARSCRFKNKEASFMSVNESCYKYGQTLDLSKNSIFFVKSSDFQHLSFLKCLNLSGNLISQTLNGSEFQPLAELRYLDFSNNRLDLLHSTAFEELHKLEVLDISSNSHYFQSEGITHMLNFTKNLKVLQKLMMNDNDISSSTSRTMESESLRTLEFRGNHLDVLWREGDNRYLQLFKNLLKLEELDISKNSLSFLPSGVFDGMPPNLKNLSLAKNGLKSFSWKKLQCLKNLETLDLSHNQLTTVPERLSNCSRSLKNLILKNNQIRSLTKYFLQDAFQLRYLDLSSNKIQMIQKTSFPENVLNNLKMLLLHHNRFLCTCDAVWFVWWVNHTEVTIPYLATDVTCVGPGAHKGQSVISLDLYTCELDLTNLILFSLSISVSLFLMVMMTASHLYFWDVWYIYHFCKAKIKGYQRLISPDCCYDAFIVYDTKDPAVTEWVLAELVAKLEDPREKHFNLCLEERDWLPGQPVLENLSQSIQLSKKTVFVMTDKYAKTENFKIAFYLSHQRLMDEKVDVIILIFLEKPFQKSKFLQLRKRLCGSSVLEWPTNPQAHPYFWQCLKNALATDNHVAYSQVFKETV
The experiment in a line: HEK-Blue-hTLR7 cell inhibition assay. The class given is cell-based. To be noted: R848 0.8 µM, 16 h, OD 620 nm, read-out: TLR7 IC50. Here is the method:
HEK-Blue-hTLR7/8/9 cell inhibition assay
1. HEK-Blue-hTLR7/8 cells (1 × 10^4 cells/well) and HEK-Blue-hTLR9 cells (1.5 × 10^4 cells/well) were seeded in a 384-well cell culture plate, with a volume of 30 µL per well. The plate was incubated at 37°C in a 5% CO2 incubator for 4 h. 2. The compound was prepared with DMSO and diluted in DMEM medium to 10 concentrations (1:3 dilution), with final concentrations of 10000, 3333.3, 1111.1, 370.4, 123.5, 41.2, 13.7, 4.6, 1.5, and 0.5 nM; R848 was prepared with DMSO and diluted in DMEM medium, with final concentrations of 0.8 µM (HEK-Blue-hTLR7) and 3 µM (HEK-Blue-hTLR8); ODN2006 was prepared with endotoxin-free water and diluted in DMEM medium, with a final concentration of 1 µM. 3. Cells treated with DMSO were used as the blank control group, while cells treated solely with Resiquimod (R848) were used as the positive control group for HEK-Blue-hTLR7/8, and cells treated solely with ODN2006 were used as the positive control group for HEK-Blue-hTLR9. Cells treated with the test compound together with R848 or ODN2006 were used as the test group. Two parallel wells were set for each group and were placed at 37°C in a 5% CO2 incubator for incubation. 4. After being incubated for 4 h, the 384-well plate of HEK-Blue-hTLR7/8 was taken out from the incubator, and R848 alone or both R848 and the diluted compound were separately added into each well. The plate was placed at 37°C in a 5% CO2 incubator for incubation for 16 h; the 384-well plate of HEK-Blue-hTLR9 was taken out from the incubator, and ODN2006 alone or both ODN2006 and the diluted compound were added separately to each well. The plate was incubated at 37°C in a 5% CO2 incubator for 16 h. 5. After being incubated for 16 h, the 384-well plate was removed from the incubator and centrifuged at 1000 rpm for 1 minute. The optical density value of each well at 620 nm was measured using a multifunctional microplate reader. 6. The cell inhibition rate was calculated as (1-(OD620 test group-OD620 blank group)/(OD620 positive group-OD620 blank group))×100%, and the half maximal inhibitory concentration (IC50) was calculated through curve fitting. Table 1: Activity of the compounds of the present disclosure in HEK-Blue-hTLR7/8/9 cellular assays

pIC50: −log10 of the molar value.

For `CN1CCN(c2nnc([C@]34CN(c5ccc(C#N)c6ncccc56)C[C@@]3(C(F)(F)F)C4)o2)CC1` [Compound 1, 5-((1S,5R)-1-(5-(4-methylpiperazin-1-yl)-1,3,4-oxadiazol-2-yl)-5-(trifluoromethyl)-3-azabicyclo[3.1.0]hexan-3-yl)quinoline-8-carbonitrile], the pIC50 is greater than 7.00.

In the case of `Cc1cc(N2CC3(c4nnc(C5CCN(C)CC5)o4)C[C@]3(C(F)(F)F)C2)c2cnn(C)c2n1` (stereo partly drawn) [Compound 2, 2-((5R)-3-(1,6-dimethyl-1H-pyrazolo[3,4-b]pyridin-4-yl)-5-(trifluoromethyl)-3-azabicyclo[3.1.0]hexan-1-yl)-5-(1-methylpiperidin-4-yl)-1,3,4-oxadiazole], the pIC50 was less than 6.00. Regarding `FC(F)(F)c1ccc(N2C[C@]3(c4nnc(C5(F)CCNCC5)o4)C[C@]3(C(F)(F)F)C2)c2cccnc12` [Compound 3, 2-(4-fluoropiperidin-4-yl)-5-((1S,5R)-5-(trifluoromethyl)-3-(8-(trifluoromethyl)quinolin-5-yl)-3-azabicyclo[3.1.0]hexan-1-yl)-1,3,4-oxadiazole], the pIC50 was greater than 7.00. As for `CN1CC(c2nnc([C@]34CN(c5ccc(C(F)(F)F)c6ncccc56)C[C@@]3(C(F)(F)F)C4)o2)C1` [Compound 4, 2-(1-methylazetidin-3-yl)-5-((1S,5R)-5-(trifluoromethyl)-3-(8-(trifluoromethyl)quinolin-5-yl)-3-azabicyclo[3.1.0]hexan-1-yl)-1,3,4-oxadiazole], the figure is greater than 7.00. As for `CN1CCC(c2nnc([C@]34CN(c5ccc(C#N)c6ncccc56)C[C@@]3(C(F)(F)F)C4)n2C)CC1` [Compound 5, 5-((1S,5R)-1-(4-methyl-5-(1-methylpiperidin-4-yl)-4H-1,2,4-triazol-3-yl)-5-(trifluoromethyl)-3-azabicyclo[3.1.0]hexan-3-yl)quinoline-8-carbonitrile], the figure is greater than 6.00; as for `CN1CCC(Nc2nnc([C@]34CN(c5ccc(C#N)c6ncccc56)C[C@@]3(C(F)(F)F)C4)o2)CC1` [Compound 6, 5-((1S,5R)-1-(5-((1-methylpiperidin-4-yl)amino)-1,3,4-oxadiazol-2-yl)-5-(trifluoromethyl)-3-azabicyclo[3.1.0]hexan-3-yl)quinoline-8-carbonitrile], greater than 7.00; as for `N#Cc1ccc(N2C[C@]3(c4nnc(N)o4)C[C@]3(C(F)(F)F)C2)c2cccnc12` [Compound 7, 5-((1S,5R)-1-(5-amino-1,3,4-oxadiazol-2-yl)-5-(trifluoromethyl)-3-azabicyclo[3.1.0]hexan-3-yl)quinoline-8-carbonitrile], greater than 7.00. `CN1CCC(C)(c2nnc([C@]34CN(c5ccc(C#N)c6ncccc56)C[C@@]3(C(F)(F)F)C4)o2)CC1` [Compound 8, 5-((1S,5R)-1-(5-(1,4-dimethylpiperidin-4-yl)-1,3,4-oxadiazol-2-yl)-5-(trifluoromethyl)-3-azabicyclo[3.1.0]hexan-3-yl)quinoline-8-carbonitrile]: the pIC50 was greater than 7.00. The value for `CN1CCC(c2nnc([C@]34CN(c5ccc(C#N)c6ncccc56)C[C@@]3(C(F)(F)F)C4)[nH]2)CC1` [Compound 9, 5-((1S,5R)-1-(5-(1-methylpiperidin-4-yl)-4H-1,2,4-triazol-3-yl)-5-(trifluoromethyl)-3-azabicyclo[3.1.0]hexan-3-yl)quinoline-8-carbonitrile] was greater than 7.00; that for `CN1[C@@H]2CC[C@H]1C[C@H](c1nnc([C@]34CN(c5ccc(C#N)c6ncccc56)C[C@@]3(C(F)(F)F)C4)o1)C2` [Compound 11, 5-((1S,5R)-1-(5-((1R,3S,5S)-8-methyl-8-azabicyclo[3.2.1]octan-3-yl)-1,3,4-oxadiazol-2-yl)-5-(trifluoromethyl)-3-azabicyclo[3.1.0]hexan-3-yl)quinoline-8-carbonitrile] was greater than 7.00; that for `N#Cc1ccc(N2C[C@]3(c4nnc(C5CCOCC5)o4)C[C@]3(C(F)(F)F)C2)c2cccnc12` [Compound 12, 5-((1S,5R)-1-(5-(tetrahydro-2H-pyran-4-yl)-1,3,4-oxadiazol-2-yl)-5-(trifluoromethyl)-3-azabicyclo[3.1.0]hexan-3-yl)quinoline-8-carbonitrile] was greater than 7.00.

For the molecule `CN1CC2(CCC(c3nnc([C@]45CN(c6ccc(C#N)c7ncccc67)C[C@@]4(C(F)(F)F)C5)o3)CC2)C1` [Compound 13, 5-((1S,5R)-1-(5-(2-methyl-2-azaspiro[3.5]nonan-7-yl)-1,3,4-oxadiazol-2-yl)-5-(trifluoromethyl)-3-azabicyclo[3.1.0]hexan-3-yl)quinoline-8-carbonitrile], the pIC50 is greater than 7.00. The value for `CN1CC2CC1CC2c1nnc([C@]23CN(c4ccc(C#N)c5ncccc45)C[C@@]2(C(F)(F)F)C3)o1` (stereo partly drawn) [Compound 14, 5-((1S,5R)-1-(5-(2-methyl-2-azabicyclo[2.2.1]heptan-5-yl)-1,3,4-oxadiazol-2-yl)-5-(trifluoromethyl)-3-azabicyclo[3.1.0]hexan-3-yl)quinoline-8-carbonitrile] was greater than 7.00. As for `CN1CCC(Oc2nnc([C@]34CN(c5ccc(C#N)c6ncccc56)C[C@@]3(C(F)(F)F)C4)o2)CC1` [Compound 15, 5-((1S,5R)-1-(5-((1-methylpiperidin-4-yl)oxy)-1,3,4-oxadiazol-2-yl)-5-(trifluoromethyl)-3-azabicyclo[3.1.0]hexan-3-yl)quinoline-8-carbonitrile], the figure is greater than 7.00.

As to `N#Cc1ccc(N2C[C@]3(c4nnc(C5CCN(CC(N)=O)CC5)o4)C[C@]3(C(F)(F)F)C2)c2cccnc12` [Compound 17, 2-(4-(5-((1S,5R)-3-(8-cyanoquinolin-5-yl)-5-(trifluoromethyl)-3-azabicyclo[3.1.0]hexan-1-yl)-1,3,4-oxadiazol-2-yl)piperidin-1-yl)acetamide], the pIC50 is greater than 7.00. As for `N#Cc1ccc(N2C[C@]3(c4nnc(C5CC6(CNC6)C5)o4)C[C@]3(C(F)(F)F)C2)c2cccnc12` [Compound 18, 5-((1S,5R)-1-(5-(2-azaspiro[3.3]heptan-6-yl)-1,3,4-oxadiazol-2-yl)-5-(trifluoromethyl)-3-azabicyclo[3.1.0]hexan-3-yl)quinoline-8-carbonitrile], the figure is greater than 7.00; as for `CN1CC2(CC(c3nnc([C@]45CN(c6ccc(C#N)c7ncccc67)C[C@@]4(C(F)(F)F)C5)o3)C2)C1` [Compound 19, 5-((1S,5R)-1-(5-(2-methyl-2-azaspiro[3.3]heptan-6-yl)-1,3,4-oxadiazol-2-yl)-5-(trifluoromethyl)-3-azabicyclo[3.1.0]hexan-3-yl)quinoline-8-carbonitrile], greater than 7.00. As for `N#Cc1ccc(N2C[C@]3(c4nnc([C@H]5CC[C@H](N)CC5)o4)C[C@]3(C(F)(F)F)C2)c2cccnc12` [Compound 20, 5-((1S,5R)-1-(5-((1R,4S)-4-aminocyclohexyl)-1,3,4-oxadiazol-2-yl)-5-(trifluoromethyl)-3-azabicyclo[3.1.0]hexan-3-yl)quinoline-8-carbonitrile], the figure is greater than 7.00.

For orientation: pIC50 means the negative decadic logarithm of the IC50, by convention in mol/L.

These data come from patent publication EP4806891A1 (Kangbaida (Sichuan) Biotechnology Co., Ltd., priority 2023, dated 2025).
